This is an account of results in patent publication US20190284168A1, “PYRAZOLE DERIVATIES AS SGC STIMULATORS” (IRONWOOD PHARMACEUTICALS, INC., priority 2014, published 2019).

For this experiment, the target named is T1, soluble guanylate cyclase (sGC) (Homo sapiens, UniProt Q02108+Q02153).
T1 construct: endogenously expressing soluble guanylate cyclase (sGC); endogenous in cells; host or cells: HEK293
T1 sequence (Q02153 1-619): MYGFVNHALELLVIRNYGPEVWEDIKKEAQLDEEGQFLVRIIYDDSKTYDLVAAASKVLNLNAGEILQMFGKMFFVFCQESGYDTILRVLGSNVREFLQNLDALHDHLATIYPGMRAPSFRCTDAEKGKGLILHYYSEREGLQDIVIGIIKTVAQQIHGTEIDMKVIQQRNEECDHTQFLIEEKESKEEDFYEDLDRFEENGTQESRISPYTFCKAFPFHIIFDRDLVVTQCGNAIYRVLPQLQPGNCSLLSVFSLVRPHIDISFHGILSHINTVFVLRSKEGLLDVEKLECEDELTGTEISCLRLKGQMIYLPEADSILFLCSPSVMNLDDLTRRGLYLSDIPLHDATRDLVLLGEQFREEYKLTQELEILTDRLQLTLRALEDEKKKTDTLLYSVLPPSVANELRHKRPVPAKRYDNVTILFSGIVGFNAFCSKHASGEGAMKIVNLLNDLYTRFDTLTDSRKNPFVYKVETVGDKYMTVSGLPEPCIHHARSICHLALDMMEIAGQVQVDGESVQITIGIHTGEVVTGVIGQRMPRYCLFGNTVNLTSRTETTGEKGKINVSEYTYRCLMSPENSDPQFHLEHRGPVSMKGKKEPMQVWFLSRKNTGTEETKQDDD
T1 sequence (Q02108 1-690): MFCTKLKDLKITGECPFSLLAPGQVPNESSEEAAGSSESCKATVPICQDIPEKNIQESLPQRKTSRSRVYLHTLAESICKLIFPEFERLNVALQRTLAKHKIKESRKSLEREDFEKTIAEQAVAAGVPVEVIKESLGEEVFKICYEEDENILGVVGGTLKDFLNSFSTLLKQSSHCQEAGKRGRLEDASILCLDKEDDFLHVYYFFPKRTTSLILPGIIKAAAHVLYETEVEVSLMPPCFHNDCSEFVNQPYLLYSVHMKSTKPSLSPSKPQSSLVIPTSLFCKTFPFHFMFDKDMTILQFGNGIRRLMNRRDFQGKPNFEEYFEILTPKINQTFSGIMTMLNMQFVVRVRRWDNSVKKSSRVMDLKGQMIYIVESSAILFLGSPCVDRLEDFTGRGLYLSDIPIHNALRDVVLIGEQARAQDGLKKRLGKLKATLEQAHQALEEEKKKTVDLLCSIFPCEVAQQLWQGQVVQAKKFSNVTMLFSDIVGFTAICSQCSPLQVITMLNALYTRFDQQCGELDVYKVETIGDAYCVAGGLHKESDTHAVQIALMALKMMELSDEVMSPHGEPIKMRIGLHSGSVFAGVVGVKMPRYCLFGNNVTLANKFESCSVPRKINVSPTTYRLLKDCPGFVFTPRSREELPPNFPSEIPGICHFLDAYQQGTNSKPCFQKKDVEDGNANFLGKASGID
Kind of experiment: sGC-HEK-cGMP assay with LC/MS detection. The experiment is classed as cell-based.

Setting [1] is: HEK293 whole cells, LC/MS detection of cGMP, 10 μM DETA-NONOate, 50% of high control response (30 μM Compound Y), read-out: Absolute EC50 (nM)- binned (~).

Like-named read-outs stand apart in the source and are kept apart here. Where only a bound is given, the exact number is not on record here.

Experimental: Human embryonic kidney cells (HEK293), endogenously expressing soluble guanylate cyclase (sGC), were used to evaluate the activity of test compounds. Compounds stimulating the sGC enzyme should cause an increase in the intracellular concentration of cGMP. HEK 293 cells were seeded in Dulbecco's Modification of Eagle's Medium supplemented with fetal bovine serum (10% final) and penicillin (100 U/mL)/streptomycin (100 μg/mL) in a 50 μL volume at a density of 1.5×10^4 cells/well in a poly-D-lysine coated 384 well flat bottom plate. Cells were incubated overnight at 37° C. in a humidified chamber with 5% CO2. Medium was aspirated and cells were washed with 1× Hank's Buffered Saline Salt Solution (50 μL). Cells were then incubated for 15 minutes at 37° C. with 50 μL of a 0.5 mM 3-isobutyl-1-methylxanthine (IBMX) solution.
were then added to the assay mixture and the resulting mixture incubated at 37° C. for 20 minutes. After the 20 minute incubation, the assay mixture was aspirated and 10% acetic acid containing 150 ng/mL+3-cGMP (internal standard for LCMS) (50 μL) was added to the cells. The plate was incubated at 4° C. for 30 minutes in the acetic acid solution to stop the reaction and lyse the cells. The plates were then centrifuged at 1,000 g for 3 minutes at 4° C. and the supernatant transferred to a clean reaction plate for LCMS analysis.
cGMP concentrations were determined from each sample using the LCMS conditions below (Table 2) and calculated standard curve.
Data were fit using a 4-parameter fit (log(agonist) vs. response—variable slope) using GraphPad Prism Software v.5. n=2 for all compounds. […] Compounds failing to elicit a minimum response of 50% are reported as >30 μM.

With `CNc1cc(-c2ncc(F)c(O)n2)nn1Cc1ccccc1F` [Compound 1], under setting [1], the EC50 is greater than 1000 nM.
Same read-out and setting: in the case of `CC(C)(NC(=O)OCc1ccccc1)C(=O)Nc1ccnc(-c2cc(-c3ccon3)n(Cc3ccccc3F)n2)n1` [Compound 5] it was greater than 1000 nM; in that of `NC(=O)CNc1cnc(-c2cc(-c3ccon3)n(Cc3ccccc3F)n2)nc1` [Compound 6], greater than 1000 nM; in that of `O=[N+]([O-])c1cnc(-c2cc(-c3ccon3)n(Cc3ccccc3F)n2)nc1NCCO` [Compound 7], greater than 30000 nM.
Consider `OCCNc1cnc(-c2cc(-c3ccon3)n(Cc3ccccc3F)n2)nc1` [Compound 8], for which, under setting [1], the concentration giving a half-maximal response (EC50) was 100 to 1000 nM.
Consider `NCCNc1cnc(-c2cc(-c3ccon3)n(Cc3ccccc3F)n2)nc1` [Compound 9], for which the concentration giving a half-maximal response (EC50) under setting [1] is greater than 1000 nM.
Take `Nc1nc(-c2cc(-c3ccon3)n(Cc3ccccc3F)n2)ncc1NCCO` [Compound 10]: under setting [1], the EC50 was greater than 1000 nM.
On to `Fc1ccccc1Cn1nc(-c2ncc(F)c(Nc3nnc(C(F)(F)F)[nH]3)n2)cc1-c1ccon1` [Compound 12], for which the EC50 under setting [1] is greater than 30000 nM.
Same read-out and setting: next, `O=C(NNC(=O)C(F)(F)F)Nc1nc(-c2cc(-c3ccon3)n(Cc3ccccc3F)n2)ncc1F` [Compound 13]: greater than 1000 nM.
In the case of `Cc1nnc(Nc2nc(-c3cc(-c4ccon4)n(Cc4ccccc4F)n3)ncc2F)o1` [Compound 14], the EC50 under setting [1] lay within 100 to 1000 nM.
Still for that read-out and setting: next, `NC(=O)C(F)(F)CNc1nc(-c2cc(-c3ccon3)n(Cc3ccccc3F)n2)ncc1F` [Compound 15]: less than 100 nM.
As to `Fc1ccccc1Cn1nc(-c2ncc(F)c(N3CCCO3)n2)cc1-c1ccon1` [Compound 16], the EC50 under setting [1] fell in the range of 100 to 1000 nM.
Regarding `Nc1nc(-c2cc(-c3ccon3)n(Cc3ccccc3F)n2)nc(N)c1NS(=O)(=O)CCC(F)(F)F` [Compound 19], the EC50 under setting [1] was greater than 1000 nM.
`COCc1cc(-c2ncc(F)c(NCC(O)(C(N)=O)C(F)(F)F)n2)nn1Cc1ccccc1F` (stereo not shown) [Compound 20]: the EC50 under setting [1] is greater than 30000 nM.
For `OCC(O)CNc1cnc(-c2cc(-c3ccon3)n(Cc3ccccc3F)n2)nc1` (stereo not shown) [Compound 21], under setting [1], the EC50 was greater than 1000 nM.
As to `CS(=O)(=O)CCNc1cnc(-c2cc(-c3ccon3)n(Cc3ccccc3F)n2)nc1` [Compound 22], the EC50 under setting [1] is greater than 1000 nM.
Still for that read-out and setting: next, `CS(=O)(=O)NCCNc1cnc(-c2cc(-c3ccon3)n(Cc3ccccc3F)n2)nc1` [Compound 24]: 100 to 1000 nM.
On the same count and under the same terms, in the case of `OC(CNc1nc(-n2cc(-c3ccon3)c(Cc3ccccc3F)n2)ncc1F)(C(F)(F)F)C(F)(F)F` [Compound 26] it was 100 to 1000 nM.
Turning to `Oc1cc(CNc2nc(-c3cc(-c4ccon4)n(Cc4ccccc4F)n3)ncc2F)on1` [Compound 28], the half-maximal effective concentration (EC50) is less than 100 nM.
In the case of `CC1(C#N)C(=O)Nc2nc(-c3cc(-c4ccon4)n(Cc4ccccc4F)n3)nc(N)c21` (stereo not shown) [Compound 29], the 50% effective concentration (EC50) under setting [1] was less than 100 nM.
Take `NC(=O)C(O)(CNc1nc(-n2cc(-c3ccon3)c(Cc3ccccc3F)n2)ncc1F)C(F)(F)F` (stereo not shown) [Compound 30]: under setting [1], the EC50 lay within 100 to 1000 nM.
Take `CC(C)(N)C(=O)Nc1ccnc(-c2cc(-c3ccon3)n(Cc3ccccc3F)n2)n1` [Compound 33]: the EC50 under setting [1] was greater than 1000 nM.
On to `Fc1ccccc1Cn1nc(-c2ncc(F)c(N3CCCCO3)n2)cc1-c1ccon1` [Compound 34], for which the EC50 under setting [1] lay within 100 to 1000 nM.
Consider `CC(C(N)=O)C(=O)Nc1ccnc(-c2cc(-c3ccon3)n(Cc3ccccc3F)n2)n1` (stereo not shown) [Compound 35], for which the EC50 under setting [1] was greater than 1000 nM.
As to `CC(O)(C(N)=O)C(=O)Nc1ccnc(-c2cc(-c3ccon3)n(Cc3ccccc3F)n2)n1` (stereo not shown) [Compound 36], under setting [1], the EC50 was in the range of 100 to 1000 nM.
For the molecule `NC(=O)Cc1c[nH]n(-c2nc(-c3cc(-c4ccon4)n(Cc4ccccc4F)n3)ncc2F)c1=O` [Compound 40], the EC50 under setting [1] was greater than 1000 nM.
The same measure, in the same setting: next, `NC(=O)Cc1cn(-c2nc(-c3cc(-c4ccon4)n(Cc4ccccc4F)n3)ncc2F)[nH]c1=O` [Compound 41]: greater than 1000 nM; `Nc1nnc(C(O)(CNc2nc(-c3cc(-c4ccon4)n(Cc4ccccc4F)n3)ncc2F)C(F)(F)F)o1` (stereo not shown) [Compound 42]: 100 to 1000 nM.
As for `O=c1n(-c2nc(-c3cc(-c4ccon4)n(Cc4ccccc4F)n3)ncc2F)nc2n1CCNC2` [Compound 43], under setting [1], the EC50 was greater than 1000 nM.
On the same count and under the same terms, next, `CCC(C)(NC(=O)OCc1ccccc1)C(=O)Nc1ccnc(-c2cc(-c3ccon3)n(Cc3ccccc3F)n2)n1` (stereo not shown) [Compound 46]: greater than 1000 nM.
`CCC(C)(N)C(=O)Nc1ccnc(-c2cc(-c3ccon3)n(Cc3ccccc3F)n2)n1` (stereo not shown) [Compound 47]: the concentration for a half-maximal effect (EC50) under setting [1] was in the range of 100 to 1000 nM.
On to `CC(C)(C(N)=O)C(=O)Nc1nc(-c2cc(-c3ccon3)n(Cc3ccccc3F)n2)ncc1F` [Compound 48], for which, under setting [1], the EC50 was greater than 1000 nM.
Regarding `CC(C)(C(=O)O)C(=O)Nc1ccnc(-c2cc(-c3ccon3)n(Cc3ccccc3F)n2)n1` [Compound 49], the EC50 under setting [1] was greater than 1000 nM.
Same read-out and setting: next, `CC(C)(C(N)=O)C(=O)Nc1ccnc(-c2cc(-c3ccon3)n(Cc3ccccc3F)n2)n1` [Compound 51]: 100 to 1000 nM.
In the case of `Cc1nnc(C(O)(CNc2nc(-c3cc(-c4ccon4)n(Cc4ccccc4F)n3)ncc2F)C(F)(F)F)o1` (stereo not shown) [Compound 52], under setting [1], the EC50 was less than 100 nM.
`NC(=O)c1nnc2n1CCN(c1nc(-c3cc(-c4ccon4)n(Cc4ccccc4F)n3)ncc1F)C2` [Compound 54]: under setting [1], the 50% effective concentration (EC50) is less than 100 nM.
Take `CCC(C)(N)CNc1nc(-c2cc(-c3ccon3)n(Cc3ccccc3F)n2)ncc1F` (stereo not shown) [Compound 55]: the EC50 under setting [1] lay within 100 to 1000 nM.
Consider `COc1nn(-c2nc(-c3cc(-c4ccon4)n(Cc4ccccc4F)n3)ncc2F)cc1CC(N)=O` [Compound 57], for which the EC50 under setting [1] is greater than 30000 nM.
Take `CC1(C(=O)Nc2ccnc(-c3cc(-c4ccon4)n(Cc4ccccc4F)n3)n2)CCNC1=O` (stereo not shown) [Compound 59]: the EC50 under setting [1] was in the range of 100 to 1000 nM.
As to `NC(=O)C1CCN(c2nc(-c3cc(-c4ccon4)n(Cc4ccccc4F)n3)ncc2F)CC1` [Compound 60], under setting [1], the EC50 is less than 100 nM.
Consider `CCOC(=O)C(C)(C)c1nnc(-c2cc(-c3ccon3)n(Cc3ccccc3F)n2)nc1OC` [Compound 61], for which the half-maximal effective concentration (EC50) under setting [1] was greater than 1000 nM.
Consider `Cn1ccnc1C(O)(CNc1nc(-c2cc(-c3ccon3)n(Cc3ccccc3F)n2)ncc1F)C(F)(F)F` (stereo not shown) [Compound 64], for which, under setting [1], the half-maximal effective concentration (EC50) lay within 100 to 1000 nM.
For the molecule `O=C(NC1CC1)C(O)(CNc1nc(-c2cc(-c3ccon3)n(Cc3ccccc3F)n2)ncc1F)C(F)(F)F` (stereo not shown) [Compound 65], under setting [1], the EC50 was less than 100 nM.
On to `CCOC(=O)C(C)(C)C(=O)Nc1ccnc(-c2cc(-c3ccon3)n(Cc3ccccc3F)n2)n1` [Compound 66], for which, under setting [1], the concentration giving a half-maximal response (EC50) was greater than 1000 nM.
For `CC(N)(CNc1nc(-c2cc(-c3ccon3)n(Cc3ccccc3F)n2)ncc1F)C1CC1` (stereo not shown) [Compound 67], the concentration giving a half-maximal response (EC50) under setting [1] is 100 to 1000 nM.
As to `NC1(CNc2nc(-c3cc(-c4ccon4)n(Cc4ccccc4F)n3)ncc2F)CC1` [Compound 68], the 50% effective concentration (EC50) under setting [1] lay within 100 to 1000 nM.
With `OC(CNc1nc(-c2cc(-c3ccon3)n(Cc3ccccc3F)n2)ncc1F)(c1nnc(C2CC2)o1)C(F)(F)F` (stereo not shown) [Compound 69, 2-(5-cyclopropyl-1,3,4-oxadiazol-2-yl)-1,1,1-trifluoro-3-((5-fluoro-2-(1-(2-fluorobenzyl)-5-(isoxazol-3-yl)-1H-pyrazol-3-yl)pyrimidin-4-yl)amino)propan-2-ol], the EC50 under setting [1] was less than 100 nM.
Take `CC(=O)c1cc(-c2ncc(F)c(NCc3cc(=O)[nH]o3)n2)nn1Cc1ccccc1F` [Compound 70]: the concentration giving a half-maximal response (EC50) under setting [1] is 100 to 1000 nM.
Regarding `CC(=O)c1cc(-c2ncc(F)c(N3CCNC(C(F)(F)F)C3)n2)nn1Cc1ccccc1F` (stereo not shown) [Compound 71], under setting [1], the EC50 is 100 to 1000 nM.

As a reminder, the EC50 is the concentration that produces a half-maximal response.
